This note sets out measurements from patent publication US6605626B2, “Antithrombotic agents” (Eli Lilly and Company, priority 1997, dated 2003).

What is called melting point is the temperature of the solid-liquid transition. The molecule `COc1ccc(C(=O)Nc2cccc(O)c2NC(=O)c2ccc(OC)cc2)cc1` [Example 158, 2,3-bis[(4-Methoxybenzoyl)amino]phenol] had a melting point of 208 to 209 °C.
Under `COc1ccc(C(=O)Nc2ccc(OC)cc2NC(=O)c2ccc(OC)cc2)cc1` [Example 155, 4-Methoxy-N^1,N^2-bis(4-methoxybenzoyl)-1,2-benzenediamine] stands 238 to 239 °C.
The molecule `COc1ccc(NC(=O)c2ccccc2NC(=O)c2ccc(C(C)(C)C)cc2)cc1` [Example 89, 2-(4-tert-Butylbenzoylamino)-N-(4-methoxyphenyl)benzamide] gave a melting point of 208 to 210 °C.
The molecule `CCNc1ccc(C(=O)Nc2ccc(OC)cc2)c(NC(=O)c2ccc(C(C)(C)C)cc2)c1` [Example 60a, 2-(4-tert-Butylbenzoylamino)-4-ethylamino-N-(4-methoxyphenyl)benzamide] returned a melting point of 205 to 207.5 °C.
